A short description of series [1]: TFM release rate in flow chamber, 11 L of water per minute. The format is physicochemical. The following applies: flow of 11 L of water per minute; 20 g TFM; FIG. 8, FIG. 9. The text has this:
To scale up from the tablet press, a hand-driven compression clamp was assembled in a fashion to create a compressed 20 g TFM cylinder 1 inch in diameter or combination of tablets adding to 20 g total TFM. Variables investigated were matrix type (tea bag vs porous cotton mesh), tablet size, formulation, and compression strength of formulation. The resulting tablets were placed into a flow chamber with a flow of 11 L of water per minute and aliquots were taken at designated time periods to evaluate TFM release rates.
Tablets H, I and J were all prepared according to Tablet E except that increasing amounts of sand were added as a density modifier to ensure tablets remained submerged.

The conditions of series [2]: cited from earlier work.

This is an account of results in patent US20190335749A1, “Adjustable Release Pesticide Tablet Formulations” (priority 2018, published 2019).

As for `O=[N+]([O-])c1ccc([O-])cc1C(F)(F)F.[K+]` [TFM phenoxide salt], the TFM release rate result in series [1] is given as “releases the fastest”.

In the case of `[Cu+2].[OH-].[OH-]` [Copper hydroxide], the solubility in water result in series [2] is “extremely low solubility”.

As to `O=C(O)COc1ccc(Cl)cc1Cl` [neutral 2,4-D, 2,4-Dichlorophenoxyacetic Acid], the solubility in water result in series [2] is recorded as “less water soluble”.
